Reference: ChEMBL document CHEMBL1201862, “PubChem BioAssay data set” (2004)
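Each compound was tested at five concentrations against cells in 96-well plates for 48 hours. GI50: concentration for 50% inhibition of growth.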 Active and inactive are the calls of the source. No stated cut-off is given here; in the data, active = GI50 up to about 1.1 µM and inactive = higher.

How the values were obtained:
Experiment in all cases: NCI tumour cell line growth inhibition, 48 h
786-0 = test system: 786-0
A498 = test system: A498
A549 = test system: A549
ACHN = test system: ACHN
BT-549 = test system: BT-549
CAKI-1 = test system: CAKI-1
CCRF-CEM = test system: CCRF-CEM
COLO 205 = test system: COLO 205
DU-145 = test system: DU-145
EKVX = test system: EKVX
HCC 2998 = test system: HCC 2998
HCT-116 = test system: HCT-116
HCT-15 = test system: HCT-15
HL-60 = test system: HL-60
HOP-62 = test system: HOP-62
HT-29 = test system: HT-29
Hs-578T = test system: Hs-578T
IGROV-1 = test system: IGROV-1
K562 = test system: K562
KM12 = test system: KM12
LOX IMVI = test system: LOX IMVI
M14 = test system: M14
MCF7 = test system: MCF7
MDA-MB-231 = test system: MDA-MB-231
MDA-MB-435 = test system: MDA-MB-435
MDA-N = test system: MDA-N
MOLT-4 = test system: MOLT-4
Malme-3M = test system: Malme-3M
NCI-H226 = test system: NCI-H226
NCI-H23 = test system: NCI-H23
NCI-H460 = test system: NCI-H460
NCI-H522 = test system: NCI-H522
NCI/ADR-RES = test system: NCI/ADR-RES
OVCAR-3 = test system: OVCAR-3
OVCAR-5 = test system: OVCAR-5
OVCAR-8 = test system: OVCAR-8
PC-3 = test system: PC-3
RPMI-8226 = test system: RPMI-8226
RXF 393 = test system: RXF 393
SF-268 = test system: SF-268
SF-295 = test system: SF-295
SK-MEL-28 = test system: SK-MEL-28
SK-MEL-2 = test system: SK-MEL-2
SK-MEL-5 = test system: SK-MEL-5
SN12C = test system: SN12C
SNB-19 = test system: SNB-19
SR = test system: SR
SW-620 = test system: SW-620
T47D = test system: T47D
TK-10 = test system: TK-10
U-251 = test system: U-251
UACC-257 = test system: UACC-257
UACC-62 = test system: UACC-62
UO-31 = test system: UO-31
HOP-92 = test system: HOP-92
OVCAR-4 = test system: OVCAR-4
SF-539 = test system: SF-539
SK-OV-3 = test system: SK-OV-3
SNB-75 = test system: SNB-75

Cc1cc(OCc2nnc3n2N=C(c2cc(F)c(Cl)cc2Cl)/C(=C/c2ccc(-c4ccc(Cl)cc4)o2)S3)ccc1Cl
GI50 (786-0): > 50 µM (inactive) | GI50 (A498): 24.7 µM (inactive) | GI50 (A549): > 50 µM (inactive) | GI50 (ACHN): > 50 µM (inactive) | GI50 (BT-549): > 50 µM (inactive) | GI50 (CAKI-1): 39.5 µM (inactive) | GI50 (CCRF-CEM): > 50 µM (inactive) | GI50 (COLO 205): 10.4 µM (inactive) | GI50 (DU-145): > 50 µM (inactive) | GI50 (EKVX): 16.3 µM (inactive) | GI50 (HCC 2998): 19 µM (inactive) | GI50 (HCT-116): 48.2 µM (inactive) | GI50 (HCT-15): 34 µM | GI50 (HL-60): > 50 µM (inactive) | GI50 (HOP-62): > 50 µM (inactive) | GI50 (HT-29): 21.3 µM (inactive) | GI50 (Hs-578T): > 50 µM (inactive) | GI50 (IGROV-1): 12.1 µM (inactive) | GI50 (K562): 26.9 µM (inactive) | GI50 (KM12): 41.5 µM (inactive) | GI50 (LOX IMVI): 31.6 µM (inactive) | GI50 (M14): > 50 µM (inactive) | GI50 (MCF7): 20.5 µM (inactive) | GI50 (MDA-MB-231): 12.9 µM (inactive) | GI50 (MDA-MB-435): 19.3 µM (inactive) | GI50 (MDA-N): 21.5 µM (inactive) | GI50 (MOLT-4): > 50 µM (inactive) | GI50 (Malme-3M): 3.9 µM (inactive) | GI50 (NCI-H226): 36.3 µM (inactive) | GI50 (NCI-H23): 26.7 µM (inactive) | GI50 (NCI-H460): 29.5 µM (inactive) | GI50 (NCI-H522): 28.8 µM (inactive) | GI50 (NCI/ADR-RES): 12.1 µM (inactive) | GI50 (OVCAR-3): 30.5 µM (inactive) | GI50 (OVCAR-5): > 50 µM (inactive) | GI50 (OVCAR-8): > 50 µM (inactive) | GI50 (PC-3): 14.6 µM (inactive) | GI50 (RPMI-8226): 14.1 µM (inactive) | GI50 (RXF 393): > 50 µM (inactive) | GI50 (SF-268): > 50 µM (inactive) | GI50 (SF-295): 36.6 µM (inactive) | GI50 (SK-MEL-28): 24.5 µM (inactive) | GI50 (SK-MEL-2): > 50 µM (inactive) | GI50 (SK-MEL-5): 46.5 µM (inactive) | GI50 (SN12C): 31.3 µM (inactive) | GI50 (SNB-19): > 50 µM (inactive) | GI50 (SR): 22.9 µM (inactive) | GI50 (SW-620): 32.9 µM (inactive) | GI50 (T47D): 7.93 µM (inactive) | GI50 (TK-10): 41.2 µM (inactive) | GI50 (U-251): > 50 µM (inactive) | GI50 (UACC-257): > 50 µM (inactive) | GI50 (UACC-62): 18.2 µM (inactive) | GI50 (UO-31): 48.5 µM (inactive)

COc1ccc(-c2cc(-c3ccc(C)cc3)n(C3OC(COC(C)=O)C(OC(C)=O)C(OC(C)=O)C3OC(C)=O)c(=S)c2C#N)cc1 (centres undefined)
GI50 (786-0): > 100 µM (inactive) | GI50 (A549): > 100 µM (inactive) | GI50 (ACHN): > 100 µM (inactive) | GI50 (BT-549): > 100 µM (inactive) | GI50 (CAKI-1): > 100 µM (inactive) | GI50 (COLO 205): > 100 µM (inactive) | GI50 (DU-145): > 100 µM (inactive) | GI50 (EKVX): > 100 µM (inactive) | GI50 (HCC 2998): > 100 µM (inactive) | GI50 (HCT-116): > 100 µM (inactive) | GI50 (HCT-15): > 100 µM | GI50 (HL-60): 49.3 µM (inactive) | GI50 (HOP-62): 37.1 µM (inactive) | GI50 (HOP-92): > 100 µM (inactive) | GI50 (HT-29): > 100 µM (inactive) | GI50 (Hs-578T): 36.6 µM (inactive) | GI50 (IGROV-1): > 100 µM (inactive) | GI50 (K562): > 100 µM (inactive) | GI50 (KM12): > 100 µM (inactive) | GI50 (LOX IMVI): > 100 µM (inactive) | GI50 (M14): > 100 µM (inactive) | GI50 (MCF7): > 100 µM (inactive) | GI50 (MDA-MB-231): > 100 µM (inactive) | GI50 (MDA-MB-435): > 100 µM (inactive) | GI50 (MDA-N): > 100 µM (inactive) | GI50 (MOLT-4): > 100 µM (inactive) | GI50 (Malme-3M): > 100 µM (inactive) | GI50 (NCI-H226): > 100 µM (inactive) | GI50 (NCI-H23): > 100 µM (inactive) | GI50 (NCI-H460): > 100 µM (inactive) | GI50 (NCI-H522): > 100 µM (inactive) | GI50 (NCI/ADR-RES): > 100 µM (inactive) | GI50 (OVCAR-3): > 100 µM (inactive) | GI50 (OVCAR-4): 29.2 µM (inactive) | GI50 (OVCAR-5): > 100 µM (inactive) | GI50 (OVCAR-8): > 100 µM (inactive) | GI50 (PC-3): > 100 µM (inactive) | GI50 (RPMI-8226): > 100 µM (inactive) | GI50 (RXF 393): 79.4 µM (inactive) | GI50 (SF-268): > 100 µM (inactive) | GI50 (SF-295): > 100 µM (inactive) | GI50 (SF-539): 57.5 µM (inactive) | GI50 (SK-MEL-28): > 100 µM (inactive) | GI50 (SK-MEL-5): > 100 µM (inactive) | GI50 (SK-OV-3): > 100 µM (inactive) | GI50 (SN12C): > 100 µM (inactive) | GI50 (SNB-19): 90.6 µM (inactive) | GI50 (SNB-75): 27 µM (inactive) | GI50 (SR): > 100 µM (inactive) | GI50 (SW-620): > 100 µM (inactive) | GI50 (T47D): > 100 µM (inactive) | GI50 (TK-10): > 100 µM (inactive) | GI50 (U-251): 50.1 µM (inactive) | GI50 (UACC-62): > 100 µM (inactive) | GI50 (UO-31): > 100 µM (inactive)
